Data on 16 compounds can be found in ChEMBL document CHEMBL1134708, “Synthesis of analogues of the O-beta-D-ribofuranosyl nucleoside moiety of liposidomycins. Part 1: contribution of the amino group and the uracil moiety upon the inhibition of MraY” (Bioorg Med Chem Lett, 2001).

pIC50: −log10 of the molar value.

The target of the first assay is T1, Phospho-N-acetylmuramoyl-pentapeptide-transferase (Escherichia coli K-12, UniProt P0A6W3).
T1 sequence (P0A6W3 whole entry): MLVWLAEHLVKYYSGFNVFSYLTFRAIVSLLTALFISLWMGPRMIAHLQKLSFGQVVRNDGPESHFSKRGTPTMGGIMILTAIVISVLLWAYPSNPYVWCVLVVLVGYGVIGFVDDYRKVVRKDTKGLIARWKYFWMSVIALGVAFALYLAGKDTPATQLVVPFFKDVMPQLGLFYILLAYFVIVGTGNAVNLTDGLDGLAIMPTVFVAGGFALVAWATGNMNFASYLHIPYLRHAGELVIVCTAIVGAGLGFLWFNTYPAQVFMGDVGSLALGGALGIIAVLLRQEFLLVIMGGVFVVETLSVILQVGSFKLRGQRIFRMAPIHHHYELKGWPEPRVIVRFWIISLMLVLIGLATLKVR
The assay can be described thus: Inhibition of Escherichia coli Translocase (mraY).
In general, pIC50 refers to the IC50 on a negative log10 scale, so that one unit is a factor of ten. As for `CCNC[C@H]1O[C@@H](OC[C@H]2O[C@@H](n3ccc(=O)[nH]c3=O)[C@H](O)C2O)[C@H](O)C1O` (single isomer, unassigned), the pIC50 was 3.82.
On the same count and under the same terms, to `C[N+](C)(C)C[C@H]1O[C@@H](OC[C@H]2O[C@@H](n3ccc(=O)[nH]c3=O)[C@H](O)C2O)[C@H](O)C1O` (single isomer, unassigned) belongs below 3.00.
The same measure, in the same setting: the same measure for `CN(C)C[C@H]1O[C@@H](OC[C@H]2O[C@@H](n3ccc(=O)[nH]c3=O)[C@H](O)C2O)[C@H](O)C1O` (single isomer, unassigned): below 3.00; for `CC(C)NC[C@H]1O[C@@H](OC[C@H]2O[C@@H](n3ccc(=O)[nH]c3=O)[C@H](O)C2O)[C@H](O)C1O` (single isomer, unassigned): 3.74.
For `CCCCCCNC[C@H]1O[C@@H](OC[C@H]2O[C@@H](n3ccc(=O)[nH]c3=O)[C@H](O)C2O)[C@H](O)C1O` (single isomer, unassigned), the negative-log IC50 (pIC50) is 3.89.
As for `N=CNC[C@H]1O[C@@H](OC[C@H]2O[C@@H](n3ccc(=O)[nH]c3=O)[C@H](O)C2O)[C@H](O)C1O` (single isomer, unassigned), the pIC50 is 4.52.
Take `NC[C@H]1O[C@@H](OC[C@H]2O[C@@H](n3ccc(=O)[nH]c3=O)[C@H](O)C2O)[C@H](O)C1O` (single isomer, unassigned): the pIC50 was 4.30.
`CCCNC[C@H]1O[C@@H](OC[C@H]2O[C@@H](n3ccc(=O)[nH]c3=O)[C@H](O)C2O)[C@H](O)C1O` (single isomer, unassigned): the pIC50 is 3.85.
For the compound `CC(=O)NC[C@H]1O[C@@H](OC[C@H]2O[C@@H](n3ccc(=O)[nH]c3=O)[C@H](O)[C@@H]2O)[C@H](O)[C@@H]1O`, the pIC50 was below 3.00.
The compound `CNC[C@H]1O[C@@H](OC[C@H]2O[C@@H](n3ccc(=O)[nH]c3=O)[C@H](O)C2O)[C@H](O)C1O` (single isomer, unassigned) gave a pIC50 of 4.35.
`N=C(N)NC[C@H]1O[C@@H](OC[C@H]2O[C@@H](n3ccc(=O)[nH]c3=O)[C@H](O)[C@@H]2O)[C@H](O)[C@@H]1O` had a pIC50 of 4.60.
In turn, `O=CNC[C@H]1O[C@@H](OC[C@H]2O[C@@H](n3ccc(=O)[nH]c3=O)[C@H](O)C2O)[C@H](O)C1O` (single isomer, unassigned) showed a pIC50 below 3.00.
Same read-out and setting: the same measure for `NC[C@H]1O[C@@H](OC(CO)[C@H]2O[C@@H](n3ccc(=O)[nH]c3=O)[C@H](O)[C@@H]2O)[C@H](O)[C@@H]1O` (stereo partly specified): 5.30; for `O=c1ccn([C@@H]2O[C@H](CO[C@@H]3O[C@H](CO)C(O)[C@H]3O)C(O)[C@H]2O)c(=O)[nH]1` (single isomer, unassigned): below 3.00.

The next assay concerns the target T1, Phospho-N-acetylmuramoyl-pentapeptide-transferase. As to the kind of experiment: Inhibition of Translocase (mraY) at >1000 uM (No activity).
As to `Cn1c(=O)ccn([C@@H]2O[C@H](CO[C@@H]3O[C@H](CN)C(O)[C@H]3O)C(O)[C@H]2O)c1=O` (single isomer, unassigned), the IC50 entry was “Not Active”.
For `NC[C@H]1O[C@@H](OC[C@H]2O[C@@H](N3CCC(=O)NC3=O)[C@H](O)C2O)[C@H](O)C1O` (single isomer, unassigned), the IC50 result was “Not Active”.
